Values joined by “and” are separate entries in the source; they are usually repeats but may differ in a detail not shown here. Equal entries are not always repeated. “Also recorded” adds a separate entry of the source. Where two headings read alike, the source gives them in different places.
Columns and labels:
[1] = tested on: HIV-1; settings: 1 minute irradiation
Method: As in the R17 assay, small aliquots of the compounds listed in TABLES 10 and 11, below, at the concentrations listed in the table, were added to stock HIV-1 to a total of 0.5 mL. The stock HIV (10^5−10^7 plaque forming units/mL) was in DMEM15% FBS. […] Controls included HIV-1 stock only, HIV-1 plus UVA only, and HIV-1 plus the highest concentration of each psoralen tested, with no UVA. Post irradiation, all samples were store frozen at −70° C. until assayed for infectivity by a microtiter plaque assay. Aliquots for measurement of residual HIV infectivity in the samples treated with a compound of the present invention were withdrawn and cultured.
Residual HIV infectivity was assayed using an MT-2 infectivity assay. […] The assay medium was 85% DMEM (with a high glucose concentration) containing 100 μg of streptomycin, 100 U of penicillin, 50 μg of gentamicin, and 1 μg of amphotericin B per mL, 15% FBS and 2 μg of Polybrene (Sigma Chemical Co., St. Louis, Mo.) per mL. Test and control samples from the inactivation procedure were diluted in 50% assay medium and 50% normal human pooled plasma The samples were serially diluted directly in 96-well plates (Corning Glass Works, Corning, N.Y.). The plates were mixed on an oscillatory shaker for 30 seconds and incubated at 37° C. in a 5% CO2 atmosphere for 1 to 18 hours. […] After an additional 1 hour of incubation at 37° C. in 5% CO2, 0.075 mL of assay medium containing 1.6% SeaPlaque agarose (FMC Bioproducts, Rockland, Me.) and prewarmed to 38.5° C. was added to each well. The plates were kept at 37° C. for a few minutes until several plates had accumulated and then centrifuged in plate carriers at 600×g for 20 minutes in a centrifuge precooled to 10° C. In the centrifuge, cell monolayers formed prior to gelling of the agarose layer. The plates were incubated for 5 days at 37° C. in 5% CO2 and stained by the addition of 0.05 mL of 50 μg/mL propidium iodide (Sigma Chemical Co.) in phosphate-buffered saline (pH 7.4) to each well. After 24 to 48 hours, the red fluorescence-stained microplaques were visualized by placing the plates on an 8,000 μW/cm^2304 nm UV light box (Fotodyne, Inc., New Berlin, Wis.). The plaques were counted at a magnification of x20 to x25 through a stereomicroscope.

[2] = tested on: Salmonella tester strain TA1538
In short: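 Pre-incubation Ames method: overnight culture plus 10% Aroclor 1254-induced rat liver S-9 mix or 0.2M phosphate buffer pH 7.4, with test solutions of 0–500 μg/mL, shaken 20 min at 37° C. Plated in histidine/biotin top agar on minimal glucose agar, revertant colonies counted after 44 h at 37° C against spontaneous-revertant background.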

[3] = tested on: Salmonella typhimurium tester strains; experiment: Ames Salmonella dark mutagenicity test, overall assessment; type: cell-based; settings: two-fold or greater increase in revertants above background and dose dependence
Method: A brief description for each procedure is given here. […] TA97a, TA98, TA1537 and TA1538 are frameshift tester strains. TA100 and TA102 are base-substitution tester strains.
This served as the background controls.
For all experiments, the pre-incubation procedure was used.

[4] = tested on: platelets; experiment: Platelet count, Sysmex cell counter; type: cell-based, human; settings: 100 μM compound, 5 Joules/cm^2, Day 5; FIGS. 21A-24A
Method: Samples were diluted 1:3 in blood bank saline.

[5] = tested on: Salmonella tester strain TA1537; experiment: Ames test, strain TA1537; settings: TA1537 + S9; 100 μg/plate
Method: In this example the compounds of the present invention are tested for their dark mutagenicity using an Ames assay. The procedures used for the Salmonella mutagenicity test as described in detail by Maron and Ames were followed exactly. Maron, D. M. and B. N. Ames, Mutation Research 113: 173 ( 1983). A brief description for each procedure is given here. The tester strains TA97a, TA98, TA100, TA102, TA1537 and TA1538 were obtained from Dr. Ames. TA97a, TA98, TA1537 and TA1538 are frameshift tester strains. TA100 and TA102 are base-substitution tester strains. Upon receipt each strain was cultured under a variety of conditions to confirm the genotypes specific to the strains.
The first tests done with the strains were to determine the range of spontaneous reversion for each of the strains. With each mutagenicity experiment the spontaneous reversion of the tester strains to histidine independence was measured and expressed as the number of spontaneous revertants per plate. This served as the background controls.
For all experiments, the pre-incubation procedure was used. In this procedure one vial of each tester strain was thawed and 20 μL of this culture was added to 6 mL of Oxoid Nutrient Broth #2. This solution was allowed to shake for 10 hours at 37° C. In the pre-incubation procedure, 0.1 mL of this overnight culture was added to each of the required number of sterile test tubes. To half of the tubes 0.5 mL of a 10% S-9 solution containing Aroclor 1254 induced rat liver extract (Molecular Toxicology Inc., Annapolis, Md.), and MgCl2, KCl, glucose-6-phosphate, NADP, and sodium phosphate buffer (Sigma, St. Louis, Mo.) were added. To the other half of the tubes 0.5 mL of 0.2M sodium phospate buffer, pH 7.4, was used in place of the S-9 mixture (the—S9samples). Finally 0.1 mL of the test solution containing either 0, 0.1, 0.5, 1, 5, 10, 50, 100, 250, or 500 μg/mL of the test compound was added. The 0.7 mL mixture was vortexed and then pre-incubated while shaking for 20 minutes at 37° C. After shaking, 2 mL of molten top agar supplemented with histidine and biotin were added to the 0.7 mL mixture and immediately poured onto a minimal glucose agar plate (volume of base agar was 20 mL). The top agar was allowed 30 minutes to solidify and then the plates were inverted and incubated for 44 hours at 37° C. After incubation the number of revertant colonies on each plate were counted. […] (“n” represents the number of replicates performed for each data point.)

Cc1oc2c(C)c3oc(=O)cc(C)c3cc2c1CNCCCCN [Compound 6, 4′-(6-amino-2-aza)hexyl-4,5′,8-trimethylpsoralen]
HIV Log Kill ([1]; 16 μM, starting titer approximately 5 logs (Table 10)): 2.0 log | HIV Log Kill ([1]; 16 μM, starting titer approximately 5.4 logs (Table 11)): 2.1 log | HIV Log Kill ([1]; 32 μM, starting titer approximately 5 logs (Table 10)): 3.1 log | HIV Log Kill ([1]; 32 μM, starting titer approximately 5.4 logs (Table 11)): 3.2 log | HIV Log Kill ([1]; 64 μM, starting titer approximately 5 logs (Table 10)): >3.8 log | HIV Log Kill ([1]; 64 μM, starting titer approximately 5.4 logs (Table 11)): >2.8 log | revertant colonies per plate ([2]; TA1538 + S9, 50 μg/plate): 24 | revertant colonies per plate ([2]; TA1538 + S9, 100 μg/plate): −2 | revertant colonies per plate ([2]; TA1538 + S9, 250 μg/plate): −38 | revertant colonies per plate ([2]; TA1538 − S9, 50 μg/plate): 2 | revertant colonies per plate ([2]; TA1538 − S9, 100 μg/plate): −18 | mutagenic response in the Ames assay (in words) [3]: no base substitution mutagenicity; also recorded: frameshift response in TA98 in the presence of S9 at concentrations of 250 μg/plate and above | platelet count, treated against controls (in words) [4]: higher platelet count than samples treated with light alone; also recorded: counts equivalent to the 5 day control | revertant colonies per plate [5]: 20 and 35

— patent publication US6544727B1, “Methods and devices for the removal of psoralens from blood products” (Cerus Corporation, priority 1995, dated 2003)
